Results published in ChEMBL document CHEMBL1138436, “Biological activity and chemistry of taxoids from the Japanese yew, Taxus cuspidata” (J Nat Prod, 2004).
Values after ≈ are worked out from the molar mass of the structure shown.

Key:
[1] = Growth inhibition of human HBC4 cells; format: functional; settings: for CC50: read-out: LC50 (the source's name)
SF-295 = assay: Growth inhibition of human SF295 cells; format: functional; settings: for CC50: read-out: LC50 (the source's name)
SNB-75 = assay: Growth inhibition of human SNB75 cells; format: functional
HCC 2998 = assay: Growth inhibition of human HCC2998 cells; format: functional; settings: for CC50: read-out: LC50 (the source's name)
NCI-H23 = assay: Growth inhibition of human NCI-H23 cells; format: functional
NCI-H460 = assay: Growth inhibition of human NCI-H460 cells; format: functional
A549 = assay: Growth inhibition of human A549 cells; format: functional
OVCAR-4 = assay: Growth inhibition of human OVCAR4 cells; format: functional
[2] = Growth inhibition of human RXF631L cells; format: functional; settings: for TGI: RXF 631
ACHN = assay: Growth inhibition of human ACHN cells; format: functional; settings: for CC50: read-out: LC50 (the source's name)
[3] = Growth inhibition of human MKN1 cells; format: functional
MKN-7 = assay: Growth inhibition of human MKN7 cells; format: functional; settings: for CC50: read-out: LC50 (the source's name)
KB = assay: Cytotoxicity against human KB cells; format: functional, cell-based
[4] = read-out: LC50 (the source's name)
[5] = read-out: pLC50 (the source's name) (converted)
[6] = RXF 631, read-out: LC50 (the source's name)
[7] = RXF 631, read-out: pGI50 (converted)
[8] = RXF 631, read-out: pLC50 (the source's name) (converted)
[9] = MKN-1, read-out: LC50 (the source's name)
[10] = MKN-1, read-out: pGI50 (converted)
[11] = MKN-1, read-out: pLC50 (the source's name) (converted)
[12] = MKN-1, read-out: pTGI (converted)

`C=C1[C@@H](OC(=O)/C=C/c2ccccc2)C[C@H](OC(C)=O)[C@]2(C)[C@@H]1C[C@]1(C(C)(C)O)C[C@H](OC(C)=O)C(C)=C1[C@@H](OC(=O)c1ccccc1)[C@@H]2OC(C)=O` [TAXUSPINE A] gave a GI50 ([1]; read-out: GI50) of 100 µM, a CC50 [1] greater than 100 µM and a TGI ([1]; read-out: TGI) greater than 100 µM. For the same molecule, the GI50 ([1]; read-out: pGI50 (converted)) was 72.4 µM, the TGI ([1]; read-out: pTGI (converted)) was 100 µM and the GI50 (SF-295; read-out: GI50) was 10 µM. It also gave a CC50 (SF-295) greater than 100 µM, a TGI (SF-295; read-out: TGI) greater than 100 µM and a GI50 (SF-295; read-out: pGI50 (converted)) of 11 µM. It also gave a TGI (SF-295; read-out: pTGI (converted)) of 100 µM, a GI50 (SNB-75; read-out: GI50) of 7.3 µM and a CC50 (SNB-75; [4]) greater than 100 µM. For the same molecule, the TGI (SNB-75; read-out: TGI) was 68 µM, the GI50 (SNB-75; read-out: pGI50 (converted)) was 7.24 µM and the CC50 (SNB-75; [5]) was 100 µM. The TGI (SNB-75; read-out: pTGI (converted)) was 67.6 µM, the TGI (HCC 2998) was greater than 100 µM and the GI50 (HCC 2998; read-out: GI50) was 26 µM. It also gave a CC50 (HCC 2998) greater than 100 µM, a GI50 (HCC 2998; read-out: pGI50 (converted)) of 26.3 µM and a GI50 (NCI-H23; read-out: GI50) of 100 µM. The CC50 (NCI-H23; [4]) was greater than 100 µM, the TGI (NCI-H23; read-out: TGI) was greater than 100 µM and the GI50 (NCI-H23; read-out: pGI50 (converted)) was 100 µM. For the same molecule, the CC50 (NCI-H23; [5]) was 100 µM, the GI50 (NCI-H460; read-out: GI50) was 44 µM and the CC50 (NCI-H460; [4]) was greater than 100 µM. The TGI (NCI-H460; read-out: TGI) was greater than 100 µM, the GI50 (NCI-H460; read-out: pGI50 (converted)) was 43.7 µM and the TGI (NCI-H460; read-out: pTGI (converted)) was 100 µM. The GI50 (A549; read-out: GI50) was 9.6 µM, the CC50 (A549; [4]) was greater than 100 µM and the TGI (A549; read-out: TGI) was greater than 100 µM. It also gave a GI50 (A549; read-out: pGI50 (converted)) of 9.55 µM, a CC50 (A549; [5]) of 100 µM and a TGI (A549; read-out: pTGI (converted)) of 100 µM. For the same molecule, the GI50 (OVCAR-4; read-out: GI50) was 22 µM, the CC50 (OVCAR-4; [4]) was greater than 100 µM and the TGI (OVCAR-4; read-out: TGI) was greater than 100 µM. It also gave a GI50 (OVCAR-4; read-out: pGI50 (converted)) of 22.4 µM, a CC50 (OVCAR-4; [5]) of 100 µM and a TGI (OVCAR-4; read-out: pTGI (converted)) of 100 µM. The TGI [2] was greater than 100 µM, the GI50 ([2]; RXF 631, read-out: GI50) was 100 µM and the CC50 [2, 6] was greater than 100 µM. It also gave a GI50 [2, 7] of 100 µM, a CC50 [2, 8] of 100 µM and a GI50 (ACHN; read-out: GI50) of 87 µM. For the same molecule, the CC50 (ACHN) was greater than 100 µM, the TGI (ACHN; read-out: TGI) was greater than 100 µM and the GI50 (ACHN; read-out: pGI50 (converted)) was 87.1 µM. For the same molecule, the TGI (ACHN; read-out: pTGI (converted)) was 100 µM, the GI50 ([3]; MKN-1, read-out: GI50) was 93 µM and the CC50 [3, 9] was greater than 100 µM. It also gave a TGI ([3]; MKN-1, read-out: TGI) greater than 100 µM, a GI50 [3, 10] of 93.3 µM and a CC50 [3, 11] of 100 µM. The TGI [3, 12] was 100 µM, the TGI (MKN-7) was greater than 100 µM and the GI50 (MKN-7; read-out: GI50) was 5.1 µM. For the same molecule, the CC50 (MKN-7) was greater than 100 µM and the GI50 (MKN-7; read-out: pGI50 (converted)) was 5.13 µM.
In the case of `CC(=O)O[C@H]1C[C@H]2OC[C@@]2(OC(C)=O)[C@H]2[C@H](OC(=O)c3ccccc3)[C@]3(O)C[C@H](O)C(C)=C([C@@H](O)[C@H](O)[C@]12C)C3(C)C` [TAXUSPINE E], the IC50 (KB) was 0.08 µg/mL (≈ 0.136 µM), the GI50 ([1]; read-out: GI50) was 72 µM and the CC50 [1] was greater than 100 µM. For the same molecule, the TGI ([1]; read-out: TGI) was greater than 100 µM, the GI50 ([1]; read-out: pGI50 (converted)) was 72.4 µM and the TGI ([1]; read-out: pTGI (converted)) was 100 µM. It also gave a GI50 (SF-295; read-out: GI50) of 21 µM, a CC50 (SF-295) greater than 100 µM and a TGI (SF-295; read-out: TGI) greater than 100 µM. For the same molecule, the GI50 (SF-295; read-out: pGI50 (converted)) was 21.4 µM, the TGI (SF-295; read-out: pTGI (converted)) was 100 µM and the GI50 (SNB-75; read-out: GI50) was 9 µM. It also gave a CC50 (SNB-75; [4]) of 100 µM, a TGI (SNB-75; read-out: TGI) of 55 µM and a GI50 (SNB-75; read-out: pGI50 (converted)) of 8.91 µM. The CC50 (SNB-75; [5]) was 100 µM, the TGI (SNB-75; read-out: pTGI (converted)) was 55 µM and the TGI (HCC 2998) was greater than 100 µM. It also gave a GI50 (HCC 2998; read-out: GI50) of 27 µM, a CC50 (HCC 2998) greater than 100 µM and a GI50 (HCC 2998; read-out: pGI50 (converted)) of 27.5 µM. The GI50 (NCI-H23; read-out: GI50) was 23 µM, the CC50 (NCI-H23; [4]) was 100 µM and the TGI (NCI-H23; read-out: TGI) was 69 µM. For the same molecule, the GI50 (NCI-H23; read-out: pGI50 (converted)) was 22.9 µM, the CC50 (NCI-H23; [5]) was 100 µM and the TGI (NCI-H23; read-out: pTGI (converted)) was 69.2 µM. The GI50 (NCI-H460; read-out: GI50) was 36 µM, the TGI (NCI-H460; read-out: TGI) was greater than 100 µM and the GI50 (NCI-H460; read-out: pGI50 (converted)) was 35.5 µM. The TGI (NCI-H460; read-out: pTGI (converted)) was 100 µM, the GI50 (A549; read-out: GI50) was 30 µM and the CC50 (A549; [4]) was 100 µM. For the same molecule, the TGI (A549; read-out: TGI) was greater than 100 µM, the GI50 (A549; read-out: pGI50 (converted)) was 30.2 µM and the CC50 (A549; [5]) was 100 µM. It also gave a TGI (A549; read-out: pTGI (converted)) of 100 µM, a GI50 (OVCAR-4; read-out: GI50) of 21 µM and a CC50 (OVCAR-4; [4]) greater than 100 µM. It also gave a TGI (OVCAR-4; read-out: TGI) greater than 100 µM, a GI50 (OVCAR-4; read-out: pGI50 (converted)) of 21.4 µM and a CC50 (OVCAR-4; [5]) of 100 µM. For the same molecule, the TGI (OVCAR-4; read-out: pTGI (converted)) was 100 µM, the TGI [2] was greater than 100 µM and the GI50 ([2]; RXF 631, read-out: GI50) was 25 µM. For the same molecule, the CC50 [2, 6] was 5100 µM, the GI50 [2, 7] was 24.5 µM and the CC50 [2, 8] was 100 µM. For the same molecule, the GI50 (ACHN; read-out: GI50) was 28 µM, the CC50 (ACHN) was greater than 100 µM and the TGI (ACHN; read-out: TGI) was greater than 100 µM. It also gave a GI50 (ACHN; read-out: pGI50 (converted)) of 28.2 µM, a TGI (ACHN; read-out: pTGI (converted)) of 100 µM and a GI50 ([3]; MKN-1, read-out: GI50) of 49 µM. It also gave a CC50 [3, 9] greater than 100 µM, a TGI ([3]; MKN-1, read-out: TGI) greater than 100 µM and a GI50 [3, 10] of 49 µM. It also gave a CC50 [3, 11] of 100 µM, a TGI [3, 12] of 100 µM and a TGI (MKN-7) of 93 µM. The GI50 (MKN-7; read-out: GI50) was 18 µM, the CC50 (MKN-7) was greater than 100 µM and the GI50 (MKN-7; read-out: pGI50 (converted)) was 18.2 µM.
